According to patent US11672466B2, “System and method for modeling brain dynamics in normal and diseased states” (THE REGENTS OF THE UNIVERSITY OF CALIFORNIA, priority 2013, dated 2023):

Tests used:
[1] = system: partial, tonic-clonic and generalized seizures; settings: clinically; cited from earlier work
PTZ seizures = settings: prior studies; cited from earlier work
APPL/S mice [2] = settings: APPL/S transgenic AD mouse model; cited from earlier work
[3] = system: APPL/S transgenic AD mouse model; settings: cited from earlier work
APPL/S mice [4] = settings: APPL/S transgenic AD mouse model; cited from earlier work; remark: listed apart in the source
APPL/S mice [5] = assay: APP immunolabeling for dystrophic neurites, Thioflavin S staining for amyloid plaques in hippocampus; type: in vivo; settings: transgenic mouse model of AD, APPL/S mice given vehicle or LM11A-31
Protocol: (§1) FIG. 30A is a photomicrograph of APP immunolabeling for dystrophic neurites (left) and Thioflavin S staining for amyloid plaques (right) in hippocampus of APPL/S mice given vehicle or LM11A-31 as indicated. Scale bars=25 μm. FIG. 30B is a photomicrograph of choline acetyltransferase-immunostained basal forebrain sections. Treatment of APPL/S mice with LM11A-31 was associated with increased length, volume, and branching of cholinergic neurites. […] Statistical significance was determined using ANOVA and post-hoc Student-Neuman-Keuls testing.

APPL/S mice [6] = assay: novel object recognition; type: in vivo, mouse
APP/PS1 mice [7] = assay: LTP / synaptic function in hippocampal slice preparations from AD model mice; design: species or system mouse; settings: hippocampus
[8] = system: amyloid-P-induced neurodegenerative mechanisms; settings: previous in vitro studies; cited from earlier work
[9] = after oral administration; cited from earlier work
APP/PS1 mice [10] = settings: slices derived from AD model mice; cited from earlier work
APPL/S mice [11] = assay: choline acetyltransferase immunostaining of cholinergic neurites in basal forebrain; type: in vivo, mouse; settings: basal forebrain sections
Protocol: as §1

APPL/S mice [12] = settings: basal forebrain and hippocampus; cited from earlier work
[13] = system: MES, PTZ and amygdala-kindling seizure models; settings: systemic PTZ; cited from earlier work

Question: With `O=C1NC(=O)C(c2ccccc2)(c2ccccc2)N1` [PHT, phenytoin] as the molecule, how does the “clinical efficacy by seizure type” value [1] read?
Answer: efficacy in partial and generalized tonic-clonic seizures

Question: For `CC[C@@H](CO)NC(=O)[C@@H]1C=C2c3cccc4c3c(cn4C)C[C@H]2N(C)C1` [methylsergide], which “effect on the beneficial effect of ANT electrical stimulation to raise threshold for PTZ seizures” value (PTZ seizures) is on record?
Answer: largely blocked

Question: Which results are given for `CC[C@H](C)[C@H](N)C(=O)NCCN1CCOCC1` [LM11A-31]?
Answer: deficits in novel object recognition (APPL/S mice [2]): prevented deficits; deficits in Y-maze performance [3]: prevented deficits; amyloid levels (APPL/S mice [4]): without affecting; dystrophic neurites and amyloid plaque formation in the hippocampus (APPL/S mice [5]): rescued significantly; object recognition deficits (APPL/S mice [6]): prevented; LTP (APP/PS1 mice [7]): normalizes; amyloid-P-induced neurodegenerative mechanisms [8]: prevented; brain concentrations [9]: reach brain concentrations known to provide neuroprotection in vitro; crossing of the blood brain barrier [9]: cross the blood brain barrier; synaptic impairment in hippocampal slice preparations (APP/PS1 mice [10]): reversed; length, volume, and branching of cholinergic neurites (APPL/S mice [11]): increased; cholinergic neuritic dystrophy (APPL/S mice [12]): prevented

Question: With `O=C1Nc2ccc(Cl)cc2C(c2ccccc2Cl)=NC1O` (stereo not drawn) [lorazepam] as the molecule, how does the “efficacy in conventional epilepsy models” value [13] read?
Answer: efficacy in all three conventional models

Question: And the “clinical efficacy by seizure type” value [1]?
Answer: efficacy in partial and generalized tonic-clonic seizures

Question: Which “efficacy in conventional epilepsy models” value [13] does the source give for `CC[C@@H](C(N)=O)N1CCCC1=O` [LEV, levetiracetam] here?
Answer: efficacy only in amygdala-kindling

Question: And the “clinical efficacy by seizure type” value [1]?
Answer: efficacy for partial, tonic-clonic and non-convulsive generalized seizures
